Structures can show the parent of a compound that is named as a salt. Where two headings read alike, the source gives them in different places.
Columns and labels:
[1] = tested on: K562 cells (human CML cell line expressing native Bcr-Abl); assay: Xenograft model of K562 in nude mice, oral dosing; conditions: for anti-tumor effect compared with imatinib / effect on body weight: po, qd
Method: Tumor volume and body weight were monitored once every 2 days (In each group, the tumor volume and body weight at beginning of the day were recorded). Tumor volume was calculated as […]*a*b*b.L×W2/2 (a and b are the length and width of the tumor, respectively). […] The results were shown in Drawings as FIGS. 1, 2, 3, 4, 5, 6, 7 and 8.

[2] = Pharmacokinetics and bioavailability in rats; assay type: in vivo; conditions: SD rats; for BA(% Oral bioavailability) / bioavailability: calculated according to AUC data, PO vs IV; for pharmacokinetics parameters, overall judgement: corresponding pharmaceutical acceptable salt forms; for bioavailability: read-out: BA(% Oral bioavailability)
Procedure, shortened: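 Rats dosed, heparinized blood sampled at set times, plasma stored at -20 °C, acetonitrile-precipitated and analyzed by HPLC-MS. Compartmental and non-compartmental parameters derived; bioavailability from AUC.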

[3] = tested on: MEG-01 (Human megakaryoblastic leukaemia cell line); assay: tumor cell proliferation, MTT or CCK8 assay, 72 h incubation; assay type: cell-based; conditions: MEG-01, 72 h, read-out: IC50 on tumor cell proliferation, MEG-01
Procedure, shortened: (§1)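 Leukemia cell lines were exposed to compounds at 1×10^−10˜1×10^−5M for 72 h. Proliferation was read by MTT (570 nm) or CCK8 (450/650 nm) after a further 4 h incubation. IC50 values were calculated from inhibition of proliferation.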

[4] = tested on: L78 (Lung cancer cell line); assay: as above; assay type: cell-based; conditions: Homo sapiens, read-out: IC50 on tumor cell proliferation, L78
U937 Cell line = assay: as above; assay type: cell-based; conditions: Homo sapiens, read-out: IC50 on tumor cell proliferation, U937
Procedure, shortened: as §1

[5] = tested on: K562 (human chronic myelogenous leukemia cell line); assay: as above; assay type: cell-based; conditions: K562, 72 h, read-out: IC50 on tumor cell proliferation, K562
Procedure, shortened: as §1

[6] = tested on: MOLT-4 (Human acute lymphoblastic leukemia cell line); assay: as above; assay type: cell-based; conditions: MOLT-4, 72 h, read-out: IC50 on tumor cell proliferation, MOLT-4
Procedure, shortened: as §1

[7] = tested on: K562R cells (imatinib-resistant cell line); assay: as above; assay type: cell-based; conditions: Homo sapiens, K-562R, read-out: IC50 on tumor cell proliferation, K562R cells
[8] = molecular target: BAF3-T315I cells (Ba/F3 cell line stably expressing BCR/ABL T315I) (Homo sapiens, UniProt P00519, T315I, cells depend on it); assay: as above; assay type: cell-based, mice
[9] = tested on: Ba/F3-Bcr/ABL-T315I cells; assay: Xenograft model of BAF3-T315I in SCID nude mice, oral dosing
Method: When the mean tumor volume reached 300-500 mm^3, mice were grouped and administered orally. […] Tumor volume and body weight were monitored once every 2 days (In each group, the tumor volume and body weight at beginning of the day were recorded). Tumor volume was calculated as π/6*a*b*b.L×W2/2 (a and b are the length and width of the tumor, respectively). […] The results were shown in Drawings as FIG. 9, 10, 11, 12, 13, 14, 15, 16.

[10] = both sexes, Sprague-Dawley, rat, plasma, iv, 10 mg/kg, IV 10 mg/kg
[11] = both sexes, Sprague-Dawley, rat, plasma, iv, 10 mg/kg, IV 10 mg/kg, read-out: Cmax
[12] = both sexes, Sprague-Dawley, rat, plasma, iv, 10 mg/kg, IV 10 mg/kg, read-out: Tmax
[13] = both sexes, Sprague-Dawley, rat, plasma, po, 25 mg/kg, PO 25 mg/kg
[14] = both sexes, Sprague-Dawley, rat, plasma, po, 25 mg/kg, PO 25 mg/kg, read-out: Cmax
[15] = both sexes, Sprague-Dawley, rat, plasma, po, 25 mg/kg, PO 25 mg/kg, read-out: Tmax
[16] = read-out: IC50 on tumor cell proliferation, BAF3-T315I cells; Ba/F3 expressing BCR/ABL T315I, 72 h, Table 1
[17] = both sexes, Sprague-Dawley, rat, plasma, po
[18] = 20 mg/kg po, q2d or qd (Example 51)
[19] = both sexes, Sprague-Dawley, rat, plasma, iv, 5 mg/kg, IV 5 mg/kg
[20] = both sexes, Sprague-Dawley, rat, plasma, iv, 5 mg/kg, IV 5 mg/kg, read-out: Cmax
[21] = both sexes, Sprague-Dawley, rat, plasma, iv, 5 mg/kg, IV 5 mg/kg, read-out: Tmax
[22] = Ba/F3-Bcr/ABL-T315I xenograft, 25 mg/kg po, q2d or qd

With `Cc1cn(-c2cc(NC(=O)c3ccc(C)c(C#Cc4cnc(NC5CC5)nc4)c3)cc(C(F)(F)F)c2)cn1` [D747 hydrochloride salt, 3-(2-(2-(cyclopropylamino)pyrimidin-5-yl)ethynyl)-4-methyl-N-(3-(4-methyl-1H-imidazol-1-yl)-5-(trifluoromethyl)phenyl)benzamide] the “effect on tumor growth” value ([1]; 25 mg/kg po qd) was “completely inhibit the tumor growth”, the “anti-tumor effect compared with imatinib” value [1] was “better anti-tumor effect than imatinib” and the “effect on body weight” value [1] was “did not cause the body weight loss”. The “BA(% Oral bioavailability)” value [2] was 35.3%, the AUC(0-inf) [2, 10] was 285000 ng·h/mL and the half-life [2, 10] was 71.8 h. It also gave a Cmax [2, 11] of 49800 ng/mL, a Tmax [2, 12] of 0.033 h and an AUC(0-inf) [2, 13] of 252000 ng·h/mL. For the same compound, the half-life [2, 13] was 48.7 h, the Cmax [2, 14] was 6200 ng/mL and the Tmax [2, 15] was 4.5 h.
With `Cc1cn(-c2cc(NC(=O)c3ccc(C)c(C#Cc4cnc(NC5CC5)nc4)c3)cc(C(F)(F)F)c2)cn1` [D747, 3-(2-(2-(cyclopropylamino)pyrimidin-5-yl)ethynyl)-4-methyl-N-(3-(4-methyl-1H-imidazol-1-yl)-5-(trifluoromethyl)phenyl)benzamide] the IC50 [3] was 7540 nM, the IC50 [4] was 10600 nM and the IC50 (U937 Cell line; U-937, 72 h) was 11500 nM. The IC50 [5] was 2.6 nM, the IC50 [6] was > 10000 nM and the IC50 [7] was 96 nM. The GI50 [8, 16] was 99.7 nM and the “pharmacokinetics parameters, overall judgement” value (“pharmacokinetics parameters” for short) [2] was “adequate pharmacokinetics parameters”.
With `Cc1cn(-c2cc(NC(=O)c3ccc(C)c(C#Cc4cnc5ccnn5c4)c3)cc(C(F)(F)F)c2)cn1` [D822 mesylate salt, 4-methyl-N-(3-(4-methyl-1H-imidazol-1-yl)-5-(trifluoromethyl)phenyl)-3-(2-(pyrazolo[1,5-a]pyrimidin-6-yl)ethynyl)benzamide] the “effect on tumor growth” value ([1]; 25 mg/kg po qd) was “completely inhibit the tumor growth”, the “anti-tumor effect compared with imatinib” value [1] was “better anti-tumor effect than imatinib” and the “effect on body weight” value [1] was “did not cause the body weight loss”. The AUC(0-inf) [2, 10] was 13800 ng·h/mL, the half-life [2, 10] was 3.15 h and the Cmax [2, 11] was 23100 ng/mL. It also gave a Tmax [2, 12] of 0.033 h, an AUC(0-inf) [2, 13] of 10700 ng·h/mL and a half-life [2, 13] of 8.04 h. It also gave a Cmax [2, 14] of 814 ng/mL, a Tmax [2, 15] of 3 h and a bioavailability [2, 17] of 31.2%.
For `Cc1cn(-c2cc(NC(=O)c3ccc(C)c(C#Cc4cnc(NC(C)C)nc4)c3)cc(C(F)(F)F)c2)cn1` [D752, 3-(2-(2-(isopropylamino)pyrimidin-5-yl)ethynyl)-4-methyl-N-(3-(4-methyl-1H-imidazol-1-yl)-5-(trifluoromethyl)phenyl)benzamide], the IC50 [3] was 22600 nM, the IC50 [4] was > 10000 nM and the IC50 (U937 Cell line; U-937, 72 h) was 8990 nM. The IC50 [5] was 3.48 nM, the IC50 [6] was 12700 nM and the IC50 [7] was 840 nM. For the same compound, the GI50 [8, 16] was 1030 nM and the “pharmacokinetics parameters” value [2] was “adequate pharmacokinetics parameters”.
In the case of `Cc1cn(-c2cc(NC(=O)c3ccc(C)c(C#Cc4cnc5[nH]ncc5c4)c3)cc(C(F)(F)F)c2)cn1` [D767 mesylate salt, 3-(2-(1H-pyrazolo[3,4-b]pyridin-5-yl)ethynyl)-4-methyl-N-(3-(4-methyl-1H-imidazol-1-yl)-5-(trifluoromethyl)phenyl)benzamide], the “effect on tumor growth” value ([1]; 25 mg/kg po qd) is reported as “completely inhibit the tumor growth”, the “effect on body weight” value [1] is reported as “did not cause the body weight loss” and the Tmax ([2]; IV 5 mg/kg) is reported as 0.033 h. For the same compound, the “AUC(0-∞)” value ([2]; IV 5 mg/kg, 5 mg/kg) was 59222.45 ng·h/mL, the Cmax ([2]; IV 5 mg/kg, 5 mg/kg) was 14093.75 ng/mL and the T1/2 ([2]; IV 5 mg/kg, 5 mg/kg) was 4.471 h. The “AUC(0-∞)” value ([2]; PO 25 mg/kg, 25 mg/kg) was 27850.615 ng·h/mL, the Cmax ([2]; PO 25 mg/kg, 25 mg/kg) was 2322.5 ng/mL and the T1/2 ([2]; PO 25 mg/kg, 25 mg/kg) was 5.949 h. The Tmax ([2]; PO 25 mg/kg, 25 mg/kg) was 2.75 h and the “BA(% Oral bioavailability)” value [2] was 9.4%.
In the case of `Cc1cn(-c2cc(NC(=O)c3ccc(C)c(C#Cc4cnc5[nH]ncc5c4)c3)cc(C(F)(F)F)c2)cn1` [D767, 3-(2-(1H-pyrazolo[3,4-b]pyridin-5-yl)ethynyl)-4-methyl-N-(3-(4-methyl-1H-imidazol-1-yl)-5-(trifluoromethyl)phenyl)benzamide], the IC50 ([3]; MTT or CCK8, nM) is reported as > 100 nM, the IC50 ([4]; MTT or CCK8, nM) is reported as 11.8 nM and the IC50 (U937 Cell line; U-937, 72 h, MTT or CCK8, nM) is reported as > 100 nM. The IC50 ([5]; MTT or CCK8, nM) was 0.208 nM, the IC50 ([6]; MTT or CCK8, nM) was > 100 nM and the IC50 ([7]; imatinib-resistant K562R) was 89 nM. For the same compound, the GI50 ([8]; Ba/F3 expressing BCR/ABL T315I, 72 h, Table 1; read-out: IC50 on tumor cell proliferation, BAF3-T315I cells) was 4.24 nM and the “pharmacokinetics parameters” value [2] was “adequate pharmacokinetics parameters”.
For `Cc1cn(-c2cc(NC(=O)c3ccc(C)c(C#Cc4cnc5[nH]ncc5c4)c3)cc(C(C)(C)C)c2)cn1` [D968 mesylate, 3-(2-(1H-pyrazolo[3,4-b]pyridin-5-yl)ethynyl)-N-(3-tert-butyl-5-(4-methyl-1H-imidazol-1-yl)phenyl)-4-methylbenzamide mesylate], the “effect on tumor growth” value [9, 18] was “inhibit the tumor growth”.
With `Cc1ccc(C(=O)Nc2ccc(CN3CCN(C)CC3)c(C(F)(F)F)c2)cc1C#Cc1cnc2ccnn2c1` [D856 dimesylate salt, 4-methyl-N-(4-((4-methylpiperazin-1-ylmethyl)-3-(trifluoromethyl)phenyl)-3-(2-(pyrazolo[1,5-a]pyrimidin-6-yl)ethynyl)benzamide dimesylate] the “effect on tumor growth” value [9, 18] was “inhibit the tumor growth”, the AUC(0-inf) [2, 19] was 8170 ng·h/mL and the half-life [2, 19] was 20 h. For the same compound, the Cmax [2, 20] was 934 ng/mL, the Tmax [2, 21] was 0.033 h and the AUC(0-inf) [2, 13] was 31800 ng·h/mL. The half-life [2, 13] was 22.2 h, the Cmax [2, 14] was 900 ng/mL and the Tmax [2, 15] was 6.5 h. For the same compound, the bioavailability [2, 17] was 78%.
With `CCNc1ncc(C#Cc2cc(C(=O)Nc3cc(-n4cnc(C)c4)cc(C(F)(F)F)c3)ccc2C)cn1` [D755, 3-(2-(2-(ethylamino)pyrimidin-5-yl)ethynyl)-4-methyl-N-(3-(4-methyl-1H-imidazol-1-yl)-5-(trifluoromethyl)phenyl)benzamide] the IC50 [3] was > 10000 nM, the IC50 [4] was 11800 nM and the IC50 (U937 Cell line; U-937, 72 h) was > 10000 nM. The IC50 [5] was 7.59 nM, the IC50 [6] was > 10000 nM and the IC50 [7] was 220 nM. For the same compound, the GI50 [8, 16] was 61 nM and the “pharmacokinetics parameters” value [2] was “adequate pharmacokinetics parameters”.
In the case of `Cc1ccc(C(=O)Nc2ccc(CN3CCN(C)CC3)c(C(F)(F)F)c2)cc1C#Cc1cnc2[nH]ncc2c1` [D824 dimesylate salt, 3-(2-(1H-pyrazolo[3,4-b]pyridin-5-yl)ethynyl)-4-methyl-N-(4-((4-methylpiperazin-1-yl)methyl)-3-(trifluoromethyl)phenyl)benzamide dimesylate], the “effect on body weight” value [9, 22] is reported as “help the body weight gain”, the “effect on tumor growth” value [9, 22] is reported as “almost completely suppressed the tumor growth” and the “effect on tumor growth” value ([1]; 5 mg/kg po qd) is reported as “completely inhibit the tumor growth”. For the same compound, the “effect on body weight” value [1] was “did not cause the body weight loss”, the Tmax ([2]; PO 25 mg/kg, dimesylate, 25 mg/kg) was 4.25 h and the AUC(0-inf) [2, 19] was 4300 ng·h/mL. It also gave a half-life [2, 19] of 6.1 h, a Cmax [2, 20] of 2240 ng/mL and a Tmax [2, 21] of 0.033 h. For the same compound, the AUC(0-inf) [2, 13] was 12600 ng·h/mL, the half-life [2, 13] was 8.72 h and the Cmax [2, 14] was 775 ng/mL. The bioavailability [2, 17] was 58.7%.

Reference: patent publication US8846671B2, “Heterocyclic alkynyl benzene compounds and medical compositions and uses thereof” (Guangzhou Institute of Biomedicine and Health, Chinese …, priority 2010, dated 2014)
